# Data taken from patent US3954767A, “Piperazine salts of 2,5-dihydroxy benzene sulfonic acid mono- and diesters” (priority 1972, dated 1976).
# Where a name gives a salt, the structure may show the parent alone.
# How the values were obtained:
# [1] = Acute toxicity (LD50), mouse, oral, method of Reed and Muench; assay type: in vivo, mouse (albino); conditions: mouse, in vivo, po
# Method: (§1) The acute toxicities for the mouse are also very low. The medium lethal dose (LD50) for the mouse was determined according to the modified method of Reed and Muench (Reed L. J. & Muench H., Am. J. Hyg., 27, 493, 1938).
# (§2) 1. ACUTE TOXICITY IN THE MOUSE AND RAT
# (§3) 18 to 25 gr albino mouse.
# (§4) The LD50 was determined according to the method of Reed and Muench. […]
# [2] = tested on: rats treated with Triton WR-1339; experiment: Hypolipemic action on the rat, Triton WR-1339 method; assay type: in vivo; conditions: for Percentage reduction of lipids: Cholesterol / Percentage reduction of lipids: Total Lipids / Percentage reduction of lipids: Triglycerides: Table VI, with respect to Triton WR-1339
# Method: The above-mentioned Triton WR-1339 method was selected. The total cholesterol, triglycerides and total lipids were determined in the serum. The amount of Triton WR-1339 administered to the animals was 300 mg/kg. The amount of piperazine 2,5-dihydroxy benzene sulfonate mono-tosylate administered was 2 mMoles/Kg orally. The letter P signifies probability.
# The above-mentioned Triton WR-1339 method was selected. The total cholesterol, triglycerides and total lipids were determined in the serum. The results obtained are given in Table V. The amount of Triton WR-1339 administered to the animals was 300 mg/Kg. The amount of the piperazine salt with one mole of the di-0-(p-chloro phenoxy isobutyrate) of 2,5-dihydroxy benzene sulfonic acid administered was 1 mMol/Kg orally. The letter P signifies probability.
# In this Triton WR-1339 method, all the compounds are administered at a dose of 2 mMoles/Kg orally excepted those compounds in which is the residue of p-chlorophenoxy isobutyric acid, which are administered orally at a dose corresponding to 2 mMoles of R per Kg, i.e. the amount used is calculated on the basis of the residue R only.
# mouse = experiment: Acute toxicity (LD50), mouse, oral, method of Reed and Muench; assay type: in vivo, mouse (albino); conditions: Table VI; species and route not printed in table (mouse per b12)
# Method: as §1, §2, §3, §4
# white Leghorn chickens = experiment: Hypolipemic action on the chicken; assay type: in vivo, chicken (white Leghorn)
# Method: as §1
# This study was performed with white Leghorn chickens, according to the above-mentioned method. The total cholesterol and the total lipids are determined in the plasma.
# [3] = Acute toxicity (LD50), rat, oral, method of Reed and Muench; set-up: species or system rat (Sprague-Dawley); conditions: in vivo
# Method: as §2
# 100 to 150 gr. Sprague-Dawley rats.
# The LD50 was determined according to the method of Reed and Muench.
# [4] = Table VI, species and route not printed in table (mouse per b12), read-out: LD50 (medium lethal dose)
# [5] = orally, 2 mMoles of R (p-chlorophenoxy isobutyric acid residue) per Kg
# [6] = Triton 300 mg/kg + compound 2 mMoles/Kg orally, P<0,0005
smiles,measurement,setting,value
"Cc1ccc(S(=O)(=O)Oc2ccc(OS(=O)(=O)c3ccc(C)cc3)c(S(=O)(=O)O)c2)cc1 [pyridine 2,5-dihydroxy benzene sulfonate ditosylate]",LD50,[1]; [4],700 mg/kg
same,Percentage reduction of lipids: Cholesterol,[2]; 2 mMoles/Kg orally,17%
same,Percentage reduction of lipids: Total Lipids,[2]; 2 mMoles/Kg orally,31%
same,Percentage reduction of lipids: Triglycerides,[2]; 2 mMoles/Kg orally,44%
"CC(C)(Oc1ccc(Cl)cc1)C(=O)Oc1ccc(OC(=O)C(C)(C)Oc2ccc(Cl)cc2)c(S(=O)(=O)O)c1 [magnesium salt of di-O-(p-chloro phenoxy isobutyrate) of 2,5] [magnesium salt of di-O-(p-chlorophenoxy isobutyrate) of 2,5-dihydroxy benzene sulfonic acid]",LD50 (medium lethal dose),mouse,4.780 mg/kg
same,Percentage reduction of lipids: Cholesterol,[2]; [5],5%
same,Percentage reduction of lipids: Total Lipids,[2]; [5],25%
same,Percentage reduction of lipids: Triglycerides,[2]; [5],51%
"CC(C)(Oc1ccc(Cl)cc1)C(=O)Oc1ccc(O)c(S(=O)(=O)O)c1 [mono-p-chloro phenoxy isobutyrate of pyridine 2,5-dihydroxy benzene sulfonate]",LD50,[1]; [4],900 mg/kg
"Cc1ccc(S(=O)(=O)Oc2ccc(O)c(S(=O)(=O)O)c2)cc1 [piperazine 2,5-dihydroxybenzenesulfonate monotosylate] [piperazine 2.5-dihydroxybenzenesulphonate monotosylate]",Percentage reduction of lipids: Cholesterol,[2]; 2 mMoles/Kg orally,18%
same,Percentage reduction of lipids: Total Lipids,[2]; 2 mMoles/Kg orally,42%
same,Percentage reduction of lipids: Triglycerides,[2]; 2 mMoles/Kg orally,43%
same,total cholesterol,"[2]; Triton 300 mg/kg + compound 2 mMoles/Kg orally, 0,0005<P<0,0025","232,3 mg % ml of plasma"
same,total lipids,[2]; [6],"1211,4 mg % ml of plasma"
same,triglycerides,[2]; [6],"639,8 mg % ml of plasma"
same,"total lipids, b/a . 100 (Y)","white Leghorn chickens; final relative to initial value, check sample X = 1075",726
same,"total cholesterol, b/a . 100 (Y)","white Leghorn chickens; final relative to initial value, check sample X = 1514",1017
same,"total cholesterol, final value (b)",white Leghorn chickens; final value,"947,2 mg % ml of plasma"
same,"total lipids, final value (b)",white Leghorn chickens; final value,"2360,8 mg % ml of plasma"
same,"total cholesterol, initial value (a)",white Leghorn chickens; initial value,"93,1 mg % ml of plasma"
same,"total lipids, initial value (a)",white Leghorn chickens; initial value,"325,2 mg % ml of plasma"
"CC(C)(Oc1ccc(Cl)cc1)C(=O)Oc1ccc(OC(=O)C(C)(C)Oc2ccc(Cl)cc2)c(S(=O)(=O)O)c1 [piperazine mono-salt of di-O-(p-chlorophenoxy isobutyrate) of 2,5-dihydroxy benzene sulfonic acid]",LD50,[1]; [4],11000 mg/kg
same,LD50,"[1]; mouse female, read-out: LD50",8700 mg/kg
same,LD50,"[1]; mouse male, read-out: LD50",11000 mg/kg
same,LD50,[3]; rat female,11700 mg/kg
same,LD50,[3]; rat male,11000 mg/kg
"Cc1ccc(S(=O)(=O)Oc2ccc(O)c(S(=O)(=O)O)c2)cc1 [morpholine 2,5-dihydroxybenzenesulfonate monotosylate] [morpholine 2.5-dihydroxybenzenesulphonate monotosylate]",LD50 (medium lethal dose),mouse,5.301 mg/kg
same,Percentage reduction of lipids: Cholesterol,[2]; 2 mMoles/Kg orally,12%
same,Percentage reduction of lipids: Total Lipids,[2]; 2 mMoles/Kg orally,31%
same,Percentage reduction of lipids: Triglycerides,[2]; 2 mMoles/Kg orally,23%
O=C(Oc1ccc(OC(=O)c2ccccc2)c(S(=O)(=O)O)c1)c1ccccc1 [morpholine 2.5-dihydroxybenzenesulphonate dibenzoate],LD50,[1]; [4],4000 mg/kg
"Cc1ccc(S(=O)(=O)Oc2ccc(O)c(S(=O)(=O)O)c2)cc1 [diethylamine-2,5-dihydroxybenzenesulfonate monotosylate] [diethylamine 2,5-dihydroxy benzene sulfonate mono-tosylate]",LD50 (medium lethal dose),mouse,6.588 mg/kg
same,Percentage reduction of lipids: Cholesterol,[2]; 2 mMoles/Kg orally,23%
same,Percentage reduction of lipids: Total Lipids,[2]; 2 mMoles/Kg orally,31%
same,Percentage reduction of lipids: Triglycerides,[2]; 2 mMoles/Kg orally,32%
Cc1ccc(S(=O)(=O)Oc2ccc(O)c(S(=O)(=O)O)c2)cc1 [piperidine 2.5-dihydroxybenzenesulphonate monotosylate],LD50,[1]; [4],5000 mg/kg
"CC(C)(Oc1ccc(Cl)cc1)C(=O)Oc1ccc(OC(=O)C(C)(C)Oc2ccc(Cl)cc2)c(S(=O)(=O)O)c1 [calcium salt of di-O-(p-chloro phenoxy isobutyrate) of 2,5-d] [calcium salt of di-O-(p-chlorophenoxy isobutyrate) of 2,5-dihydroxy benzene sulfonic acid]",Percentage reduction of lipids: Cholesterol,[2]; [5],27%
same,Percentage reduction of lipids: Total Lipids,[2]; [5],29%
same,Percentage reduction of lipids: Triglycerides,[2]; [5],33%
"Cc1ccc(S(=O)(=O)Oc2ccc(O)c(S(=O)(=O)O)c2)cc1 [pyridine 2,5-dihydroxybenzenesulfonate monotosylate] [pyridine 2,5-dihydroxy benzene sulfonate mono-tosy-late]",LD50 (medium lethal dose),mouse,680 mg/kg
same,Percentage reduction of lipids: Cholesterol,[2]; 2 mMoles/Kg orally,18%
same,Percentage reduction of lipids: Total Lipids,[2]; 2 mMoles/Kg orally,27%
same,Percentage reduction of lipids: Triglycerides,[2]; 2 mMoles/Kg orally,36%
Cc1ccc(S(=O)(=O)Oc2ccc(O)c(S(=O)(=O)O)c2)cc1 [piperazine 2.5-dihydroxybenzenesulphonate monotosylate],LD50,"[1]; mouse female, read-out: LD50",> 10800 mg/kg
same,LD50,"[1]; mouse male, read-out: LD50",> 10800 mg/kg
same,LD50,[3]; rat female,11900 mg/kg
same,LD50,[3]; rat male,> 11900 mg/kg
"CC(C)(Oc1ccc(Cl)cc1)C(=O)Oc1ccc(O)cc1S(=O)(=O)O [calcium 2-O-(p-chlorophenoxyisobutyryl) 2,5-dihydroxy benzene sulfonate]",LD50,[1]; [4],3.35 mg/kg
same,Percentage reduction of lipids: Cholesterol,[2]; [5],30%
same,Percentage reduction of lipids: Total Lipids,[2]; [5],26%
same,Percentage reduction of lipids: Triglycerides,[2]; [5],32%
"CC(C)(Oc1ccc(Cl)cc1)C(=O)Oc1ccc(O)c(S(=O)(=O)O)c1 [magnesium salt of mono-O-(p-chloro phenoxy isobutyrate) of 2] [magnesium salt of mono-O-(p-chlorophenoxy isobutyrate) of 2,5-dihydroxy benzene sulfonic acid]",Percentage reduction of lipids: Cholesterol,[2]; [5],19%
same,Percentage reduction of lipids: Total Lipids,[2]; [5],28%
same,Percentage reduction of lipids: Triglycerides,[2]; [5],44%
